Assay results from ChEMBL document CHEMBL1909046, “DrugMatrix in vitro pharmacology data”.
pIC50, pKi: −log10 of the molar value.

Assays:
Substance-P receptor = Substance-P receptor (Homo sapiens, UniProt P25103); assay type: cell membranes, CHO, Membrane; conditions: cho; note: in other assays of this panel Not Active means under 50% inhibition at 10 µM
[1] = target: T1, C-X-C chemokine receptor type 1 (Homo sapiens, UniProt P25024); note: in other assays of this panel Not Active means under 50% inhibition at 10 µM
T1 sequence (P25024 whole entry): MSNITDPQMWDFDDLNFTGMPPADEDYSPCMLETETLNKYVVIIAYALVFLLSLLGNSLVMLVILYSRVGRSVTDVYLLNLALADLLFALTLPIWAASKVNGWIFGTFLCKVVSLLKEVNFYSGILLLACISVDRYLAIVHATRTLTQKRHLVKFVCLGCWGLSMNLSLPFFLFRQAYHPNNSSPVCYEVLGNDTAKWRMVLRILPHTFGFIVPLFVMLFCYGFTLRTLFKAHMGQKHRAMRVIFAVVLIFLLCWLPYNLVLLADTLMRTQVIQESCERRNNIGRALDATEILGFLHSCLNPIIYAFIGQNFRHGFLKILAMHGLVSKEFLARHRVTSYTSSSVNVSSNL

D(4) dopamine receptor = target: T2, D(4) dopamine receptor (Homo sapiens, UniProt P21917); experiment: DRUGMATRIX: Dopamine D4.2 radioligand binding (ligand: [3H] Spiperone); assay type: cell membranes, CHO-K1, Membrane; conditions: cho-k1; Not Active = under 50% inhibition at 10 µM
T2 sequence (P21917 whole entry): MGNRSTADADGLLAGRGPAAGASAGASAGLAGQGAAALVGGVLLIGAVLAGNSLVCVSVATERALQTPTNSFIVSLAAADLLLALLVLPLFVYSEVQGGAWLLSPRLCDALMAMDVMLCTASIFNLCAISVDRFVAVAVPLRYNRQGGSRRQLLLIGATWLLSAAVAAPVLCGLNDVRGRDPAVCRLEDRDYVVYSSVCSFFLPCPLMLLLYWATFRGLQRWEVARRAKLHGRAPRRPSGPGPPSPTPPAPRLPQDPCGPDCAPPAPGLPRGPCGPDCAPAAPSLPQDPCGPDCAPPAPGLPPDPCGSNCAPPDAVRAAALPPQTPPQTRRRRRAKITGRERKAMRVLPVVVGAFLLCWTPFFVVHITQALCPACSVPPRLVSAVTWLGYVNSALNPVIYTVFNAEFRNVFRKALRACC

[2] = DRUGMATRIX: Sodium/nucleoside co-transporter radioligand binding (ligand: nitrobenzylthioinosine); assay type: cell membranes, Cavia porcellus, Dunkin-Hartley, Cerebral cortex, Membrane; conditions: Not Active = under 50% inhibition at 10 µM
[3] = target: T3, Muscarinic acetylcholine receptor M2 (Homo sapiens, UniProt P08172); assay type: cell membranes, CHO-K1, Membrane; conditions: cho-k1; note: in other assays of this panel Not Active means under 50% inhibition at 10 µM
T3 sequence (P08172 whole entry): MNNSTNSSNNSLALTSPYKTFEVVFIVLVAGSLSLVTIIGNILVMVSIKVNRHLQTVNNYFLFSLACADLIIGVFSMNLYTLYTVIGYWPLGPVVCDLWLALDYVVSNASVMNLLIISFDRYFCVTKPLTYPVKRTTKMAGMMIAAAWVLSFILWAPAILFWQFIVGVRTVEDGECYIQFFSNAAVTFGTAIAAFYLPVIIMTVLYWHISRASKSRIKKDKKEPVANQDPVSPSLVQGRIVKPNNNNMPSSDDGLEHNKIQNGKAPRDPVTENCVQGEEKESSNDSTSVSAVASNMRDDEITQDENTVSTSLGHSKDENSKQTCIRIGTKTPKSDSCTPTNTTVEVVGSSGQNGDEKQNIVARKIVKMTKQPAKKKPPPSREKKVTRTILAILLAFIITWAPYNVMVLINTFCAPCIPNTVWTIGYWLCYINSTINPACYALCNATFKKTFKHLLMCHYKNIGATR

D(1A) dopamine receptor = D(1A) dopamine receptor (Homo sapiens, UniProt P21728); experiment: DRUGMATRIX: Dopamine D1 radioligand binding (ligand: [3H] SCH-23390); assay type: cell membranes, CHO, Membrane; conditions: Not Active = under 50% inhibition at 10 µM; for IC50: cho; for pIC50: read-out: IC50; for pKi: read-out: Ki
[4] = target: Epidermal growth factor receptor (Homo sapiens, UniProt P00533); experiment: DRUGMATRIX: Protein Tyrosine Kinase, EGF Receptor enzyme inhibition (substrate: Poly(Glu:Tyr)); assay type: cell-based, Insect cells; conditions: Not Active = under 50% inhibition at 10 µM; for IC50: insect cells; for pIC50: read-out: IC50
Chain of Epidermal growth factor receptor (P00533 whole entry): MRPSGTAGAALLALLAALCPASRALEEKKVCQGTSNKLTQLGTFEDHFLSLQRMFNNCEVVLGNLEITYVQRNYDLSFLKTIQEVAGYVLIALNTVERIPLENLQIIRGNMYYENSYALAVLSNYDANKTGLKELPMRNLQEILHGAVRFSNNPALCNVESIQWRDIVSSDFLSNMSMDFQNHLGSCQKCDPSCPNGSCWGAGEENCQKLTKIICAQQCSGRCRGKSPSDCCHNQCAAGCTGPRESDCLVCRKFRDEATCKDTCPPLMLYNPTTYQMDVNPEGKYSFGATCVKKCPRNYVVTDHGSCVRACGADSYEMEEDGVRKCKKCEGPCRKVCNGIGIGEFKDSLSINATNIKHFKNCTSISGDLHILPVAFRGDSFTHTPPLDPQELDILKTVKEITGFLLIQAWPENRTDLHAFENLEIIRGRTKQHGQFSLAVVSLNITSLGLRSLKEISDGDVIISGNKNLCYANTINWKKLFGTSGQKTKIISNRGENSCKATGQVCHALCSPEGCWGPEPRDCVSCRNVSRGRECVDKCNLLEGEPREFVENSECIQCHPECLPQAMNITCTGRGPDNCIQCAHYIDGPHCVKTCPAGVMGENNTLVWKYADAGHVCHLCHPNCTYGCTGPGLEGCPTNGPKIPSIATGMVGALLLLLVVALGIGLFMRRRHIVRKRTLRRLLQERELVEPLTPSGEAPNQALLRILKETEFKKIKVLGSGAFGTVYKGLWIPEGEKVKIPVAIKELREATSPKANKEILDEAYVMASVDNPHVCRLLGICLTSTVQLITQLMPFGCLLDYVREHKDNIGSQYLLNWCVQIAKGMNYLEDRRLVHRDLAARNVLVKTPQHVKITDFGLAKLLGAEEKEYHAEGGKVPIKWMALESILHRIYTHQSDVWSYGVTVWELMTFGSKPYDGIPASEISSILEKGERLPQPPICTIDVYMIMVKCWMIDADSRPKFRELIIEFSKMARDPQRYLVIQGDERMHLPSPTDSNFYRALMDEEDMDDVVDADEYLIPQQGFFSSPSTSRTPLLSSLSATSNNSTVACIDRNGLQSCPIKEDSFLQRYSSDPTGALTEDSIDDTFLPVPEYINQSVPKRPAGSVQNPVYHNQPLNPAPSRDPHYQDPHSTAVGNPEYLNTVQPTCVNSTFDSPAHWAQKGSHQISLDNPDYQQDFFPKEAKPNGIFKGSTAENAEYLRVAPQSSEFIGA

Chain of Substance-P receptor (P25103 whole entry): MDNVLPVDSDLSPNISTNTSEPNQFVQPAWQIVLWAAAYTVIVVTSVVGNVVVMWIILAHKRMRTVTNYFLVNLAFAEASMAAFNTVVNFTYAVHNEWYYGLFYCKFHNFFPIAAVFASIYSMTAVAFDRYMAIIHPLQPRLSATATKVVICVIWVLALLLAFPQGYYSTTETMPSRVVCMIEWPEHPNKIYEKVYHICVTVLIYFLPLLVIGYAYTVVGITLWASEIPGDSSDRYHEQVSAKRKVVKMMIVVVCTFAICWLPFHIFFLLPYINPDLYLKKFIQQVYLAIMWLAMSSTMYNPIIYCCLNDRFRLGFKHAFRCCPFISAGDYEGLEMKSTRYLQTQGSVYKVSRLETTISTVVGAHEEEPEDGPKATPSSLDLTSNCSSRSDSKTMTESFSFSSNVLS
Chain of D(1A) dopamine receptor (P21728 whole entry): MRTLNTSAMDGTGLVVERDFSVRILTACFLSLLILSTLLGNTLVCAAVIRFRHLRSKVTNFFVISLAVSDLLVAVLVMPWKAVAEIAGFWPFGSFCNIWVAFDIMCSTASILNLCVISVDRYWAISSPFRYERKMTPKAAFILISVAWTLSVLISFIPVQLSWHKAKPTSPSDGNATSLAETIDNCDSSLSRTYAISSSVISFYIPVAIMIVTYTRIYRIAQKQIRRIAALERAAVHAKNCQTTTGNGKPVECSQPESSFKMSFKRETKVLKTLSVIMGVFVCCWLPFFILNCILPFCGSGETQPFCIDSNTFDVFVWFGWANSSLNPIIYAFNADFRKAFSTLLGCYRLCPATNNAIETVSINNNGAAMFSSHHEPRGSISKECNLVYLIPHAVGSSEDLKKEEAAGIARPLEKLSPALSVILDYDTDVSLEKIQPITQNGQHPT

Row | Structure (SMILES) | IC50 (Substance-P receptor) | IC50 [1] | IC50 (D(4) dopamine receptor) | IC50 [2] | Ki [2] | IC50 [3] | IC50 (D(1A) dopamine receptor) | IC50 [4] | pIC50 [4] | pIC50 (D(1A) dopamine receptor) | pKi (D(1A) dopamine receptor)
1 | CC(C)(C)NCC(O)c1cc(Cl)c(N)c(Cl)c1 (centres undefined) [CLENBUTEROL] | Not Active | Not Active | Not Active | Not Active | Not Active | Not Active | Not Active | Not Active | – | – | –
2 | CC(O)CO (centres undefined) [PROPYLENE GLYCOL] | Not Active | Not Active | Not Active | Not Active | Not Active | Not Active | Not Active | Not Active | – | – | –
3 | CC1Cc2ccccc2N1NC(=O)c1ccc(Cl)c(S(N)(=O)=O)c1 (centres undefined) [INDAPAMIDE] | Not Active | Not Active | Not Active | Not Active | Not Active | Not Active | Not Active | Not Active | – | – | –
4 | c1ccc(Nc2ccc(Nc3ccccc3)cc2)cc1 | Not Active | Not Active | Not Active | Not Active | Not Active | Not Active | Not Active | Not Active | – | – | –
5 | COc1cc2nc(N3CCN(C(=O)C4COc5ccccc5O4)CC3)nc(N)c2cc1OC (centres undefined) [DOXAZOSIN] | Not Active | Not Active | Not Active | Not Active | Not Active | Not Active | Not Active | Not Active | – | – | –
6 | CCOc1ccc(NC(C)=O)cc1 [PHENACETIN] | Not Active | Not Active | Not Active | Not Active | Not Active | Not Active | Not Active | Not Active | – | – | –
7 | CN(C)CCCN1c2ccccc2Sc2ccc(Cl)cc21 [CHLORPROMAZINE] | Not Active | Not Active | – | Not Active | Not Active | – | – | – | 4.54 | – | –
8 | CC(C)[C@H]1C(=O)N2CCC[C@H]2[C@]2(O)O[C@](NC(=O)[C@@H]3C=C4c5cccc6[nH]cc(c56)C[C@H]4N(C)C3)(C(C)C)C(=O)N12 [ERGOCORNINE] | Not Active | Not Active | Not Active | Not Active | Not Active | Not Active | – | Not Active | – | 6.53 | 6.83
9 | CC(C)(Oc1ccc(Cl)cc1)C(=O)O [CLOFIBRIC ACID] | Not Active | Not Active | Not Active | Not Active | Not Active | Not Active | Not Active | Not Active | – | – | –
10 | CCC(C)n1ncn(-c2ccc(N3CCN(c4ccc(OCC5COC(Cn6cncn6)(c6ccc(Cl)cc6Cl)O5)cc4)CC3)cc2)c1=O (centres undefined) [ITRACONAZOLE] | Not Active | Not Active | Not Active | Not Active | Not Active | Not Active | Not Active | Not Active | – | – | –
11 | O=c1oc2ccccc2c(O)c1Cc1c(O)c2ccccc2oc1=O [DICUMAROL] | Not Active | Not Active | Not Active | Not Active | Not Active | Not Active | Not Active | Not Active | – | – | –
12 | Cc1onc(O)c1CC(N)C(=O)O (racemic) [(R,S)-AMPA] | Not Active | Not Active | Not Active | Not Active | Not Active | Not Active | Not Active | Not Active | – | – | –
13 | CC1=C2C(=CO[C@H](C)[C@H]2C)C(O)=C(C(=O)O)C1=O [CITRININ] | Not Active | Not Active | Not Active | Not Active | Not Active | Not Active | Not Active | Not Active | – | – | –
14 | Nc1nc2c(ncn2COCCO)c(=O)[nH]1 [ACYCLOVIR] | Not Active | Not Active | Not Active | Not Active | Not Active | Not Active | Not Active | Not Active | – | – | –
15 | CCOC(=O)C1=C(COCCN)NC(C)=C(C(=O)OC)C1c1ccccc1Cl (centres undefined) [AMLODIPINE] | Not Active | Not Active | Not Active | Not Active | Not Active | Not Active | Not Active | Not Active | – | – | –
16 | O=C1CC[C@@H](N2C(=O)c3ccccc3C2=O)C(=O)N1 | Not Active | Not Active | Not Active | Not Active | Not Active | Not Active | Not Active | Not Active | – | – | –
17 | Cc1ccc(N(CC2=NCCN2)c2cccc(O)c2)cc1 [PHENTOLAMINE] | Not Active | Not Active | Not Active | Not Active | Not Active | Not Active | Not Active | Not Active | – | – | –
18 | CC(C)C(Br)C(=O)NC(N)=O (centres undefined) [BROMISOVALUM] | Not Active | Not Active | Not Active | Not Active | Not Active | Not Active | Not Active | Not Active | – | – | –
19 | Cc1ccccc1N1C(=O)c2cc(S(N)(=O)=O)c(Cl)cc2NC1C (centres undefined) [METOLAZONE] | Not Active | Not Active | Not Active | Not Active | Not Active | Not Active | Not Active | Not Active | – | – | –
20 | C1CCC(C(CC2CCCCN2)C2CCCCC2)CC1 (centres undefined) [PERHEXILINE] | Not Active | Not Active | Not Active | Not Active | Not Active | Not Active | Not Active | – | 5.83 | – | –
21 | CC(C)CN(C[C@@H](O)[C@H](Cc1ccccc1)NC(=O)O[C@H]1CCOC1)S(=O)(=O)c1ccc(N)cc1 | Not Active | Not Active | Not Active | Not Active | Not Active | Not Active | Not Active | Not Active | – | – | –
22 | Cc1ccc2cc3c(ccc4ccccc43)c3c2c1CC3 [3-METHYLCHOLANTHRENE] | Not Active | Not Active | Not Active | Not Active | Not Active | Not Active | Not Active | Not Active | – | – | –
23 | Nc1nc2c(ncn2CCC(CO)CO)c(=O)[nH]1 [PENCICLOVIR] | Not Active | Not Active | Not Active | Not Active | Not Active | Not Active | Not Active | Not Active | – | – | –
24 | CN(C)C(=O)Oc1cc(OC(=O)N(C)C)cc(C(O)CNC(C)(C)C)c1 (centres undefined) [BAMBUTEROL] | Not Active | Not Active | Not Active | Not Active | Not Active | Not Active | Not Active | Not Active | – | – | –
25 | Nc1nc(N)nc(-c2cc(Cl)ccc2Cl)n1.O=C(O)/C=C\C(=O)O [IRSOGLADINE MALEATE] | Not Active | Not Active | Not Active | Not Active | Not Active | Not Active | Not Active | Not Active | – | – | –
26 | Cc1ccc(-c2cc(C(F)(F)F)nn2-c2ccc(S(N)(=O)=O)cc2)cc1 [CELECOXIB] | Not Active | Not Active | Not Active | Not Active | Not Active | Not Active | – | Not Active | – | 4.55 | 4.85
27 | CCCN1C[C@H](CSC)C[C@@H]2c3cccc4[nH]cc(c34)C[C@H]21 [PERGOLIDE] | Not Active | Not Active | Not Active | Not Active | Not Active | Not Active | – | Not Active | – | – | –
